{"source": "patent US6534539B2", "about": "“Pharmaceutical composition and method for treatment of dyspepsia” (Hoffman-La Roche Inc., priority 2000, dated 2003)", "format_in_all_cases": "in vivo, human", "key": {"[1]": {"system": "normal volunteers, clinical model of dyspepsia (gastric distension)", "experiment": "Gastrointestinal sensations (visual analogue scales) during gastric distensions and duodenal infusion of fat emulsion", "text": "(§1) The reduction of dyspeptic symptoms by lipase inhibitors, particularly orlistat, was shown in human clinical studies that measured functional dyspepsia. Specifically, we measured the reduction of dyspeptic symptoms after administration of orlistat to normal volunteers (healthy subjects without a history of gastrointestinal disease (8 female and 7 male), aged 24-38 years; normal body weight (BMI (kg/m^2): females: 21.9±0.4, males: 23.4±0.4) during infusion of a fat emulsion into the duodenum in a clinical model of idopathic dyspepsia (gastric distension). BMI means body mass index.\n(§2) Fat emulsions (Table 1) were infused intraduodenally via a single-lumen, naso-duodenal polyvinyl tube as described previously (Feinle, AJP2000), while the stomach was distended. Gastrointestinal sensations were assessed by a visual analog questionnaire. […]\n(§3) Studies were performed in a double-blind, placebo-controlled, cross-over fashion in randomised order at least one week apart. […] At first, the minimal distending pressure (MDP) was determined by increasing intragastric pressure in steps of 1 mmHg/min. Pressure was then fixed at MDP and fasting tone recorded until variations in gastric volume were no longer observed. […] Two isobaric distensions were performed, 15 min apart from each other, by increasing intrabag pressure in steps of 1 mmHg/min, while corresponding volumes were monitored. […]"}, "[2]": {"system": "normal volunteers, clinical model of dyspepsia (gastric distension)", "experiment": "Changes in gastric tone (gastric baseline volume at MDP) during duodenal infusions", "conditions": "orlistat added to oil emulsion infused intraduodenally; p <0.05", "text": "as §1\nFat emulsions (Table 1) were infused intraduodenally via a single-lumen, naso-duodenal polyvinyl tube as described previously (Feinle, AJP2000), while the stomach was distended. Gastrointestinal sensations were assessed by a visual analog questionnaire.\nas §3"}, "[3]": {"system": "normal volunteers, clinical model of dyspepsia (gastric distension)", "experiment": "Pressure-volume relationships during gastric distensions and duodenal infusion of fat emulsion (gastric barostat)", "conditions": "p <0.05", "text": "as §1, §2, §3"}}, "data": [{"smiles": "CCCCCCCCCCC[C@@H](C[C@@H]1OC(=O)[C@H]1CCCCCC)OC(=O)[C@H](CC(C)C)NC=O", "note": "[orlistat]", "values": [{"measurement": "Effects of LCTs on scores for fullness, bloating, nausea, pressure and hunger", "setting": "[1]; increasing intragastric pressure during duodenal fat infusion", "value": "significantly diminished"}, {"measurement": "Intensity of stomach fullness and sensitivity, nausea and bloating", "setting": "[1]; orlistat added to fat emulsion infused into the duodenum, gastric distension by inflatable balloon", "value": "reduced"}, {"measurement": "Gastric baseline volume change during infusions", "setting": "[2]", "value": "completely abolished"}, {"measurement": "Maximally tolerated pressure during gastric distension", "setting": "[3]", "value": "significantly increased"}]}]}
